Source: patent US20170008928A1, “NOVEL PEPTIDES AND PEPTIDE DERIVATIVES AND USES THEREOF” (Novo Nordisk A/S, priority 2015, published 2017)
Starred links: 1 amine or outer side, 2 acyl side, 3 side chain; linkers in the order of their positions; H or OH if unused. Non-standard residues stand in square brackets, D forms with d. Residues, ends and D or L forms follow the SMILES beside them. *: point of attachment. Phe(4-CH2SO3H) = N[C@@H](Cc1ccc(CS(=O)(=O)O)cc1)C(=O)O; C20 diacid = O=C(O)CCCCCCCCCCCCCCCCCCC(=O)*; sY = N[C@@H](Cc1ccc(OS(=O)(=O)O)cc1)C(=O)O; C18 diacid = O=C(O)CCCCCCCCCCCCCCCCC(=O)*; γGlu = O=C(O)[C@H](CCC(=O)[*:2])N[*:1]; 1Nal = N[C@@H](Cc1cccc2ccccc12)C(=O)O; C14 diacid = O=C(O)CCCCCCCCCCCCC(=O)*; NMeF = CN[C@@H](Cc1ccccc1)C(=O)O; dNMeD = CN[C@H](CC(=O)O)C(=O)O; Nle = CCCC[C@H](N)C(=O)O; AEEA = NCCOCCOCC(=O)O

Assay: Pharmacokinetic (PK) studies in mini-pig, i.v.
Type: in vivo
Conditions: i.v. 5 nmol/kg, female Göttingen mini-pigs, harmonic mean
Method: The purpose of this study is to determine the protraction in vivo of a number of CCK derivatives of the invention after intravenous (i.v.) administration to mini-pigs, i.e. the prolongation of their time in the body and thereby their time of action. This was done in pharmacokinetic (PK) studies, where the terminal half-life of the derivative in question was determined. By terminal half-life is generally meant the period of time it takes to halve a certain plasma concentration, measured after the initial distribution phase.
The derivatives of the compounds listed in Table 4 were subjected to PK studies as described in the following.
Female Göttingen mini-pigs obtained from Ellegaard Göttingen Minipigs (Dalmose, Denmark) at approximately 6 months of age and weighing approximately 17 kg were used in the studies. […] Additional blood samples were collected for the derivatives of Examples 2, 4, 7, 8, and 9 at the following time points: 5, 12, 22, 28 and 144 hours. The blood samples were collected into test tubes containing EDTA buffer for stabilisation and kept on ice for max. 20 minutes before centrifugation. The centrifugation procedure to separate plasma was: 4° C., approx. 2500 g for 10 minutes. Plasma was collected and immediately transferred to Micronic tubes stored at −20° C. until assayed.
Plasma was pipetted into Micronic tubes on dry ice, and kept at −20° C. until analysed for plasma concentration of the respective CCK derivative using LC-MS. The plasma samples (including standard curve samples used for quantitation of unknowns and prepared from blank plasma spiked with CCK compound at a concentration range of 0.5-2000 nM for the compounds of Examples 3, 5, 6 or 0.5-1000 nM for the remaining Example compounds) were protein precipitated using three volumes of methanol and centrifuged (16000×g, 4° C., 20 min). The supernatants were injected into the chromatographic system (TurboFlow Transcend 1250 & 10 valve VIM, Thermo Fisher Scientific) which consisted of an initial Turboflow Cyclone purification column 0.5×50 mm (Thermo Fischer Scientific) and an eluting Aeris peptide 3.6 μm XB—C18 column 2.1×50 mm (Phenomenex) kept at 60° C.
The CCK derivatives of Examples 2-9 were eluted using LC-MS method I: A chromatographic gradient system with mobile phases consisting of water with 0.1 v/v % formic acid (mobile phase A) and water/acetonitrile 10/90 v/v with 0.1 v/v % formic acid (mobile phase B). The 2 minute gradient started at 60% mobile phase B and ended at 100% mobile phase B with a flow of 0.4 mL/min. The CCK derivatives were detected and quantified after on-line infusion of the LC flow to the LTQ OrbiTrap Discovery mass spectrometer (Thermo Fischer Scientific) equipped with an electrospray interface operated in negative mode, ESI− (Sheath gas flow rate at 40, Aux gas flow rate at 30, Sweep gas flow rate at 2, Spray voltage at 2.8 kV, Capillary temp. at 275° C., S-lens RF level at −125 and Heater temp. at 325° C.).
The remaining Example compounds were eluted using LC-MS method II: A chromatographic gradient system with mobile phases consisting of water with 1 v/v % formic acid (mobile phase A) and water/acetonitrile 10/90 v/v with 1 v/v % formic acid (mobile phase B). The initial 0.25 minute gradient started at 0% mobile phase B and ended at 70% mobile phase B followed by the second 2.2 minute gradient started at 70% mobile phase B and ended at 75% mobile phase B with a flow of 0.4 mL/min. These CCK derivatives were detected and quantified as described above except that the Spray voltage was 4.0 kV.
Individual plasma concentration-time profiles were analysed by a non-compartmental model in Phoenix v. 6.3 (Pharsight Inc., Mountain View, Calif., USA).

Row | Structure (SMILES) | Plasma terminal half-life (T½) [h] | half-life (minipig, plasma, iv, read-out: Plasma terminal half-life (T½) (converted)) [h]
1 | CCCC[C@H](NC(=O)[C@H](Cc1ccc(OS(=O)(=O)O)cc1)NC(=O)[C@H](CC(=O)O)NC(=O)COCCOCCNC(=O)COCCOCCNC(=O)CC[C@H](NC(=O)CCCCCCCCCCCCCCCCC(=O)O)C(=O)O)C(=O)NCC(=O)N[C@@H](Cc1c[nH]c2ccccc12)C(=O)N[C@@H](CCCC)C(=O)N(C)[C@H](CC(=O)O)C(=O)N[C@@H](Cc1cccc2ccccc12)C(N)=O [Example 2, 2-[2-[2-[[2-[2-[2-[[(4S)-4-Carboxy-4-(17-carboxyheptadecanoylamino)butanoyl]amino]ethoxy]ethoxy]acetyl]amino]ethoxy]ethoxy]acetyl-Asp-sTyr-Nle-Gly-Trp-Nle-DMeAsp-1Nal-amide] ({C18 diacid-γGlu-AEEA-AEEA}-D[sY][Nle]GW[Nle][dNMeD][1Nal]-NH2) | 140 | 
2 | CCCC[C@H](NC(=O)[C@H](Cc1c[nH]c2ccccc12)NC(=O)CNC(=O)[C@H](CC(C)C)NC(=O)[C@H](Cc1ccc(OS(=O)(=O)O)cc1)NC(=O)[C@H](CC(=O)O)NC(=O)[C@H](CO)NC(=O)[C@H](CO)NC(=O)CNC(=O)[C@H](CO)NC(=O)[C@H](CO)NC(=O)CNC(=O)CCCCCCCCCCCCCCCCC(=O)O)C(=O)N(C)[C@H](CC(=O)O)C(=O)N(C)[C@@H](Cc1ccccc1)C(N)=O [Example 29, 17-Carboxyheptadecanoyl-Gly-Ser-Ser-Gly-Ser-Ser-Asp-sTyr-Leu-Gly-Trp-Nle-DMeAsp-MePhe-amide] ({C18 diacid}-GSSGSSD[sY]LGW[Nle][dNMeD][NMeF]-NH2) |  | 119
3 | CCCC[C@H](NC(=O)[C@H](Cc1c[nH]c2ccccc12)NC(=O)CNC(=O)[C@H](CC(C)C)NC(=O)[C@H](Cc1ccc(CS(=O)(=O)O)cc1)NC(=O)[C@H](CC(=O)O)NC(=O)COCCOCCNC(=O)COCCOCCNC(=O)CC[C@H](NC(=O)CCCCCCCCCCCCC(=O)O)C(=O)O)C(=O)N(C)[C@H](CC(=O)O)C(=O)N(C)[C@@H](Cc1ccccc1)C(N)=O [Example 34, 2-[2-[2-[[2-[2-[2-[[(4S)-4-Carboxy-4-(13-carboxytridecanoylamino)butanoyl]amino]ethoxy]ethoxy]acetyl]amino]ethoxy]ethoxy]acetyl-Asp-Phe(4-sulfomethyl)-Leu-Gly-Trp-Nle-DMeAsp-MePhe-amide] ({C14 diacid-γGlu-AEEA-AEEA}-D[Phe(4-CH2SO3H)]LGW[Nle][dNMeD][NMeF]-NH2) | 2 | 
4 | CCCC[C@H](NC(=O)[C@H](Cc1c[nH]c2ccccc12)NC(=O)CNC(=O)[C@H](CC(C)C)NC(=O)[C@H](Cc1ccc(CS(=O)(=O)O)cc1)NC(=O)[C@H](CC(=O)O)NC(=O)COCCOCCNC(=O)COCCOCCNC(=O)CC[C@H](NC(=O)CCCCCCCCCCCCCCCCCCC(=O)O)C(=O)O)C(=O)N(C)[C@H](CC(=O)O)C(=O)N(C)[C@@H](Cc1ccccc1)C(N)=O [Example 35, 2-[2-[2-[[2-[2-[2-[[(4S)-4-Carboxy-4-(19-carboxynonadecanoylamino)butanoyl]amino]ethoxy]ethoxy]acetyl]amino]ethoxy]ethoxy]acetyl-Asp-Phe(4-sulfomethyl)-Leu-Gly-Trp-Nle-DMeAsp-MePhe-amide] ({C20 diacid-γGlu-AEEA-AEEA}-D[Phe(4-CH2SO3H)]LGW[Nle][dNMeD][NMeF]-NH2) | 153 | 
